tested on: HIV-1 (H9IIIB strain); experiment: Cell-Based HIV Infection Assay Using a Reporter (MT4-GFP cells); settings: Human immunodeficiency virus 1, inflection point (IP) of viral growth inhibition; MT4-GFP cells infected with HIV-1 H9IIIB; 50% normal human serum; mean of at least two independent experiments; read-out: Cell Based IP (50% NHS)
Method in brief: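 MT4-GFP cells (HIV LTR-driven GFP) bulk-infected with HIV-1 H9IIIB at low MOI for 24 h, washed, then exposed to compounds in RPMI plus 50% normal human serum, 0.4% DMSO. Infected cells counted at 24 and 48 h; R0 = 48 h/24 h ratio, inhibition normalised to DMSO and triple-drug control; IP from 4-parameter fit.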

| SMILES | EC50 [µM] |
| --- | --- |
| N[C@H](C(=O)N[C@H]1CCCC[C@@H]1CC[C@H]1CN[C@@H]2CCCS(=O)(=O)N1C2)[C@@H](c1ccc(F)cc1)C1CCOCC1 [Example 156, (βR)-N-[(1S,2R)-2-{2-[(6R,9S)-2,2-dioxido-2-thia-1,7-diazabicyclo[4.3.1]dec-9-yl]ethyl}cyclohexyl]-4-fluoro-β-(tetrahydro-2H-pyran-4-yl)-L-phenylalaninamide] | 0.2 |
| CC1(C)C[C@@H]([C@H](c2ccc(Cl)cc2)[C@H](N)C(=O)N[C@H]2CCCC[C@@H]2CC[C@H]2CN[C@@H]3CCCS(=O)(=O)N2C3)CCO1 [Example 129, (βR)-4-chloro-β-[(4S)-2,2-dimethyltetrahydro-2H-pyran-4-yl]-N-[(1S,2R)-2-{2-[(6R,9S)-2,2-dioxido-2-thia-1,7-diazabicyclo[4.3.1]dec-9-yl]ethyl}cyclohexyl]-L-phenylalaninamide] | 0.056 |
| N[C@H](C(=O)Nc1cccc(F)c1CC[C@H]1CN[C@@H]2CCCS(=O)(=O)N1C2)[C@@H](c1ccc(F)cc1)c1cnc(C(F)(F)F)nc1 [Example 132, (βS)-N-(2-{2-[(6R,9S)-2,2-dioxido-2-thia-1,7-diazabicyclo[4.3.1]dec-9-yl]ethyl)-3-fluorophenyl)-4-fluoro-β-[2-(trifluoromethyl)pyrimidin-5-yl]-L-phenylalaninamide] | 0.015 |
| CC(C)Oc1ncc([C@H](c2ccc(F)cc2)[C@H](N)C(=O)Nc2cccc(F)c2CC[C@H]2CN[C@@H]3CCCS(=O)(=O)N2C3)cn1 [Example 23, (βS)—N-(2-{2-[(6R,9S)-2,2-Dioxido-2-thia-1,7-diazabicyclo[4.3.1]dec-9-yl]ethyl}-3-fluorophenyl)-4-fluoro-β-[2-(1-methylethoxy)pyrimidin-5-yf]-L-phenylalaninamide] | 0.0093 |
| N[C@H](C(=O)Nc1cccc(F)c1CCC1CNC2CCCS(=O)(=O)N1C2)C(c1ccc(Cl)cc1)c1ccnc(C(F)(F)F)c1 (stereo in doubt) [Example 123, (βR)-4-chloro-N-{2-[2-(2,2-dioxido-2-thia-1,7-diazabicyclo[4.3.1]dec-9-yl)ethyl]-3-fluorophenyl}-β-[2-(trifluoromethyl)pyridin-4-yl]-L-phenylalaninamide] | 0.0068 |
| N[C@H](C(=O)Nc1cncc(F)c1CC[C@H]1CN[C@@H]2CCCS(=O)(=O)N1C2)[C@@H](c1ccc(F)cc1)C1CCOCC1 [Example 195, (βR)-N-(4-{2-[(6R,9S)-2,2-dioxido-2-thia-1,7-diazabicyclo[4.3.1]dec-9-yl]ethyl}-5-fluoropyridin-3-yl)-4-fluoro-β-(tetrahydro-2H-pyran-4-yl)-L-phenylalaninamide] | 0.067 |
| CO[C@H]1CC[C@H]([C@H](c2ccc(F)cc2)[C@H](N)C(=O)Nc2cccc(F)c2CC[C@H]2CN[C@@H]3CCCS(=O)(=O)N2C3)CC1 [Example 118, (βR)-N-(2-{2-[(6R,9S)-2,2-dioxido-2-thia-1,7-diazabicyclo[4.3.1]dec-9-yl]ethyl}-3-fluorophenyl)-4-fluoro-β-[(1r,4R)-4-methoxycyclohexyl]-L-phenylalaninamide] | 0.0075 |
| N[C@H](C(=O)Nc1cccc(F)c1CCC1CNC2CCCS(=O)(=O)N1C2)[C@H](CCC1CCCCO1)c1ccc(Cl)cc1 (stereo partly drawn) [Example 151, (βR)-4-chloro-N-{2-[2-(2,2-dioxido-2-thia-1,7-diazabicyclo[4.3.1]dec-9-yl)ethyl]-3-fluorophenyl}-β-[2-(tetrahydro-2H-pyran-2-yl)ethyl]-L-phenylalaninamide] | 0.023 |
| COC(=O)N[C@H](C(=O)Nc1cccc(F)c1CC[C@H]1CN[C@@H]2CCCS(=O)(=O)N1C2)[C@@H](c1ccc(Cl)cc1)[C@H]1CC[C@H](OC2CC2)CC1 [Example 257, methyl {(1S,2R)-2-(4-chlorophenyl)-2-[(1r,4R)-4-(cyclopropyloxy)cyclohexyl]-1-[(2-{2-[(6R,9S)-2,2-dioxido-2-thia-1,7-diazabicyclo[4.3.1]dec-9-yl]ethyl}-3-fluorophenyl)carbamoyl]ethyl}carbamate] | 0.0056 |
| CCO[C@H]1CC[C@H]([C@H](c2ccc(Cl)cc2)[C@H](N)C(=O)Nc2cccc(F)c2CC[C@H]2CN[C@@H]3CCCS(=O)(=O)N2C3)CC1 [Example 6, (2S,3R)-2-amino-3-(4-chlorophenyl)-N-(2-(2-((6R,9S)-2,2-dioxido-2-thia-1,7-diazabicyclo[4.3.1]decan-9-yl)ethyl)-3-fluorophenyl)-3-((1r,4R)-4-ethoxycyclohexyl)propanamide] | 0.0062 |
| COC(=O)N[C@H](C(=O)Nc1cccc(F)c1CC[C@H]1CN[C@@H]2CCCS(=O)(=O)N1C2)C1(c2ccc(Cl)cc2)CCN(S(C)(=O)=O)CC1 [Example 175, methyl {(1S)-1-[4-(4-chlorophenyl)-1-(methylsulfonyl)piperidin-4-yl]-2-[(2-{2-[(6R,9S)-2,2-dioxido-2-thia-1,7-diazabicyclo[4.3.1]dec-9-yl]ethyl}-3-fluorophenyl)amino]-2-oxoethyl}carbamate] | 0.12 |
| COC(=O)N[C@H](C(=O)Nc1cccc(F)c1CCC1CNC2CCCS(=O)(=O)N1C2)C(c1ccc(OC)nc1)c1ccc(F)c(F)c1 (stereo in doubt) [Example 68, methyl [(1S,2R)-2-(3,4-difluorophenyl)-1-({2-[2-(2,2-dioxido-2-thia-1,7-diazabicyclo[4.3.1]dec-9-yl)ethyl]-3-fluorophenyl}carbamoyl)-2-(6-methoxypyridin-3-yl)ethyl]carbamate] | 0.012 |
| N[C@H](C(=O)Nc1cccc(F)c1CCC1CNC2CCCS(=O)(=O)N1C2)[C@H](c1cncc(Cl)c1)c1ccc(Cl)c(F)c1 (stereo partly drawn) [Example 72, (βS)-4-chloro-β-(5-chloropyridin-3-yl)-N-{2-[2-(2,2-dioxido-2-thia-1,7-diazabicyclo[4.3.1]dec-9-yl)ethyl]-3-fluorophenyl}-3-fluoro-L-phenylalaninamide] | 0.0051 |
| CO[C@H]1CC[C@](c2ccc(F)cc2)([C@H](N)C(=O)Nc2cncc(F)c2CC[C@H]2CN[C@@H]3CCCS(=O)(=O)N2C3)CC1 [Example 235, (2S)-2-amino-N-(4-{2-[(6R,9S)-2,2-dioxido-2-thia-1,7-diazabicyclo[4.3.1]dec-9-yl]ethyl}-5-fluoropyridin-3-yl)-2-[trans-1-(4-fluorophenyl)-4-methoxycyclohexyl]ethanamide] | 0.067 |
| COC(=O)N[C@H](C(=O)Nc1cccc(F)c1CCC1CNC2CCCS(=O)(=O)N1C2)[C@@H](c1ccc(Cl)cc1)c1ccnc(C(F)(F)F)c1 (stereo partly drawn) [Example 18, Methyl {(1S,2S)-2-(4-chlorophenyl)-1-({2-[2-(2,2-dioxido-2-thia-1,7-diazabicyclo[4.3.1]dec-9-yl)ethyl]-3-fluorophenyl}carbamoyl)-2-[2-(trifluoromethyl)pyridin-4-yl]ethyl}carbamate] | 0.0087 |
| CO[C@H]1CC[C@H]([C@H](c2ccc(Cl)cc2)[C@H](N)C(=O)Nc2cncc(F)c2CC[C@H]2CN[C@@H]3CCCS(=O)(=O)N2C3)CC1 [Example 239, (2S,3R)-2-amino-3-(4-chlorophenyl)-N-(4-(2-((6R,9S)-2,2-dioxido-2-thia-1,7-diazabicyclo[4.3.1]decan-9-yl)ethyl)-5-fluoropyridin-3-yl)-3-((1r,4R)-4-methoxycyclohexyl)propanamide] | 0.0056 |
| N[C@H](C(=O)Nc1cccc(F)c1CCC1CNC2CCCS(=O)(=O)N1C2)[C@@H](c1ccc(Cl)cc1)c1ccc(C(F)(F)F)nc1 (stereo partly drawn) [Example 89, (βS)-4-chloro-N-{2-[2-(2,2-dioxido-2-thia-1,7-diazabicyclo[4.3.1]dec-9-yl)ethyl]-3-fluorophenyl}-β-[6-(trifluoromethyl)pyridin-3-yl]-L-phenylalaninamide] | 0.0051 |
| CC(F)(F)c1cncc([C@H](c2ccc(Cl)cc2)[C@H](N)C(=O)Nc2cccc(F)c2CCC2CNC3CCCS(=O)(=O)N2C3)c1 (stereo partly drawn) [Example 20, (βS)-4-Chloro-β-[5-(1,1-difluoroethyl)pyridin-3-yl]-N-{2-[2-(2,2-dioxido-2-thia-1,7-diazabicyclo[4.3.1]dec-9-yl)ethyl]-3-fluorophenyl}-L-phenylalaninamide] | 0.011 |
| N[C@H](C(=O)Nc1cccc(F)c1CCC1CNC2CCCS(=O)(=O)N1C2)[C@H](CCC1CCOCC1)c1ccc(Cl)c(F)c1 (stereo partly drawn) [Example 74, (βR)-4-chloro-N-{2-[2-(2,2-dioxido-2-thia-1,7-diazabicyclo[4.3.1]dec-9-yl)ethyl]-3-fluorophenyl}-3-fluoro-β-[2-(tetrahydro-2H-pyran-4-yl)ethyl]-L-phenylalaninamide] | 0.151 |
| COC(=O)N[C@H](C(=O)Nc1c(F)ccc(F)c1CC[C@H]1CN[C@@H]2CCCS(=O)(=O)N1C2)[C@@H](c1ccc(Cl)cc1)[C@H]1CCOC(C)(C)C1 [Example 200, methyl {(1S,2R)-2-(4-chlorophenyl)-2-[(4S)-2,2-dimethyltetrahydro-2H-pyran-4-yl]-1-[(2-{2-[(6R,9S)-2,2-dioxido-2-thia-1,7-diazabicyclo[4.3.1]dec-9-yl]ethyl}-3,6-difluorophenyl)carbamoyl]ethyl}carbamate] | 0.035 |
| COC(=O)N[C@H](C(=O)Nc1cccc(F)c1CCC1CNC2CCCS(=O)(=O)N1C2)C(c1ccc(Cl)cc1)c1ccc(OC(C)C)nc1 (stereo in doubt) [Example 94, methyl {(1S,2R)-2-(4-chlorophenyl)-1-({2-[2-(2,2-dioxido-2-thia-1,7-diazabicyclo[4.3.1]dec-9-yl)ethyl]-3-fluorophenyl}carbamoyl)-2-[6-(1-methylethoxy)pyridin-3-yl]ethyl}carbamate] | 0.0064 |
| Cn1nc(C(F)(F)F)cc1[C@H](c1ccc(Cl)cc1)[C@H](N)C(=O)Nc1cccc(F)c1CC[C@H]1CN[C@@H]2CCCS(=O)(=O)N1C2 [Example 261, (βR)-4-chloro-N-(2-{2-[(6R,9S)-2,2-dioxido-2-thia-1,7-diazabicyclo[4.3.1]dec-9-yl]ethyl}-3-fluorophenyl)-β-[1-methyl-3-(trifluoromethyl)-1H-pyrazol-5-yl]-L-phenylalaninamide] | 0.0087 |
